EC50 and Efficacy data for 13 compounds are collected here from ChEMBL document CHEMBL1140941 (J Med Chem, 2009).

SMILES strings stand for the structures. pEC50: −log10 of the molar value.

The target in assay [1] is T1, Bile acid receptor (Homo sapiens, UniProt Q96RI1).
T1 sequence (Q96RI1 whole entry): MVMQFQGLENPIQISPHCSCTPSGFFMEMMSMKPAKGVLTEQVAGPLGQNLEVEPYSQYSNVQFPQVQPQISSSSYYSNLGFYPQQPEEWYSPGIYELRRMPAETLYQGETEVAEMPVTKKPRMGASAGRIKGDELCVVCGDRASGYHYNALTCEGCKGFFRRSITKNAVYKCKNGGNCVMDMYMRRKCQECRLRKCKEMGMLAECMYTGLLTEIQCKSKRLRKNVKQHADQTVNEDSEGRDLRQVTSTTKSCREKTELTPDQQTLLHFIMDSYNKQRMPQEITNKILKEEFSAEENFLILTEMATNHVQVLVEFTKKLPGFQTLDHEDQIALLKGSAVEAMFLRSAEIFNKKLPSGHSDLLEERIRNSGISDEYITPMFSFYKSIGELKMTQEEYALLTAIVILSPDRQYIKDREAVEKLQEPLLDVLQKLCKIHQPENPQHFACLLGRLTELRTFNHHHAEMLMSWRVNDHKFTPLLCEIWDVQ
In words: Agonist activity at human FXR expressed in african green monkey CV1 cells co-expressing ECRE with RXR co-factor by luciferase reporter gene assay. The assay is classed as functional, cell-based, CV-1. A general note: Reporter assays use an easily measured gene product as a stand-in for the process of interest.

Assay [2] deals with T2, Bile acid receptor (Homo sapiens) (UniProt Q96RI1).
T2 sequence (whole entry): T1 sequence (Q96RI1 whole entry)
Put plainly: Agonist activity at human FXR expressed in african green monkey CV1 cells co-expressing ECRE with RXR co-factor up to 10 uM by luciferase reporter gene assay relative to CDCA. In kind it is functional, cell-based. Particulars: CV-1.

Broadly, the pEC50 is the negative decadic logarithm of the EC50, by convention in mol/L. Turning to `CCOC(=O)C1=CN(C(=O)c2ccc(Cl)cc2)CC(C)c2c1[nH]c1ccccc21` (stereo not given), in assay [1], the negative-log EC50 (pEC50) is 7.14. Besides, the Efficacy in assay [2] turned out to be 155%. In turn, `CCOC(=O)C1=CN(C(=O)c2ccc(F)c(F)c2)CC(C)c2c1[nH]c1ccccc21` (stereo not given) had a pEC50 in assay [1] of 7.49. In assay [2], the Efficacy is 170%. In the case of `CCOC(=O)C1=CN(C(=O)c2ccc(F)cc2)CC(C)(C)c2c1[nH]c1ccccc21`, the negative logarithm of the EC50 (pEC50) in assay [1] was 7.66. Also, in assay [2], the Efficacy turned out to be 148%. For the compound `CCOC(=O)C1=CN(C(=O)c2ccc(Cl)cc2)CC(C)(C)c2c1[nH]c1ccccc21`, the negative logarithm of the EC50 (pEC50) in assay [1] was 7.60. Besides, the Efficacy in assay [2] came to 190%. Take `CC(C)OC(=O)C1=CN(C(=O)c2ccc(F)cc2)CC(C)(C)c2c1[nH]c1ccccc21`: the pEC50 in assay [1] was 8.10. This compound also came in with an Efficacy in assay [2] of 146%. For `CC(C)OC(=O)C1=CN(C(=O)c2ccc(F)cc2)CCc2c1[nH]c1ccccc21`, in that order: 6.30 and 120%. Taken in the same sequence, the figures for `CCCCOC(=O)C1=CN(C(=O)c2ccc(F)cc2)CCc2c1[nH]c1ccccc21` were 5.96 and 109%. For `CCOC(=O)C1=CN(C(=O)c2ccc(F)cc2)CC(C)c2c1[nH]c1ccccc21` (stereo not given), in that order: 7.24 and 160%.

In assay [1], `CCOC(=O)C1=CN(C(=O)c2ccc(OC)cc2)CC(C)(C)c2c1[nH]c1ccccc21` had a negative-log EC50 (pEC50) of 7.54. In assay [2], the Efficacy was found to be 139%. Taken in the same sequence, the figures for `CCOC(=O)C1=CN(C(=O)c2ccc(OC)cc2)CC(C)c2c1[nH]c1ccccc21` (stereo not given) were 7.22 and 145%.

Turning to `CCCOC(=O)C1=CN(C(=O)c2ccc(F)cc2)CCc2c1[nH]c1ccccc21`, in assay [1], the negative-log EC50 (pEC50) is 6.30. In addition, in assay [2], the Efficacy came to 130%. Taken in the same sequence, the figures for `CCOC(=O)C1=CN(C(=O)c2ccc(F)cc2)CCc2c1[nH]c1ccccc21` were 6.22 and 100%. In assay [2], `CCOC(=O)C1=CN(C(=O)c2ccc(F)c(F)c2)CC(C)(C)c2c1[nH]c1ccccc21` showed an Efficacy of 144%.
